Where no end group is shown, it is not given here.
Tests used:
Assay type in all cases: binding
[1] = target: T1, TNF-α (Homo sapiens, UniProt P01375); experiment: Equilibrium SPR affinity of peptides for captured TNF-α
Protocol: Point-variant libraries were prepared in 96-well stock plates as described in the supporting information. From the stock plate, peptides were diluted to 50 µM or 10 µM in Biacore HBS-EP buffer (GE Healthcare, Piscataway, NJ) containing 1 mg/ml carboxymethyl-dextran (Sigma-Aldrich, St. Louis, MO) to reduce non-specific binding to the CM-5 SPR chip surface. Biotinylated TNF-α was captured on a neutravidin coated Biacore CM-5 chip (GE Healthcare, Piscataway, NJ) at different levels on spots 1, 2, 4, and 5 across all four flow cells corresponding to a low to moderate Rmax range of 40-200 RU. Spot 3 on all flow cells contained only immobilized neutravidin and served as a reference spot.
Responses were normalized to the predicted Rmax so that results from different TNF-α capture levels could be directly compared.
Sequences containing multiple enhancing point variations were synthesized using standard solid-phase synthesis and purified. Multiple variant affinities were determined with the same protocol used for point-variant affinities.
Peptide binding energies and dissociation constants (Kd) were calculated separately as a mean and standard error of all replicate measurements.
Text S1: Experimental Details […]
Point-Variant Libraries. Point-variant libraries were ordered in PEPScreen® 96 -vial format from Sigma-Genosys (St. Louis, MO). The purity of each peptide in the library was […]
was dissolved in HBS-N buffer to an approximate 2 mg/ml concentration, each vial was centrifuged to spin insoluble peptide to the bottom of the vial. Supernatant was collected from each vial and transferred to a 96-well plate, peptide supernatant concentrations in each well was measured using A280 absorbance and a predicted molar extinction coefficient (ε280) based on the specific peptide sequence. Based on the supernatant concentrations, all the […]
plate(s). All SPR screens of the point-variants were done using dilutions from this stock […]
SPR Assays. SPR Chip Preparation. Unless otherwise noted, SPR immobilization was done on a Biacore A100 SPR system (GE Healthcare, Piscataway, NJ). A standard coupling protocol was employed to immobilize a neutravidin capture surface via exposed primary amines. The immobilization was performed at 25 °C using Sodium Acetate (10 mM in 150 mM Sodium Chloride, pH 4.5) as the running buffer. Addressable spots 1, 2, 3 on each of the four flow cells of the CM-5 dextran SPR chip (GE Healthcare, Piscataway, NJ) were activated by a 10 minute injection of a freshly prepared 1:1 solution of 400 mM 1-ethyl-3-(3-dimethylaminopropyl)-carbodimide (EDC): 100 mM N-hydroxysuccimide (NHS) in […]

[2] = target: T1, TNF-α; experiment: Kinetic fits of SPR sensorgrams; conditions: for Kd: from koff and kon of SPR kinetic fits; for koff / kon: kinetic fits of SPR sensorgrams across a concentration series
Protocol: Kinetic fits of the TNF1 and TNF1-opt SPR sensorgrams (Figure S7 in File S1) indicate that TNF1-opt has approximately an order of magnitude or more improvement in both on-rate (kon), and off-rate (koff), when compared to TNF1 (TNF1: koff = 1.6±0.5 s^−1, kon = 5.0±1.7×10^3 M^−1s^−1, TNF1-opt: koff = 0.2±0.02 s^−1 kon = 2.6±0.2×10^5 M^−1s^−1).
Figure S7. SPR sensorgram kinetic fits for TNF1 and TNF1-opt. On-rates (kon), off-rates (koff) and dissociation constants (Kd) shown were determined from kinetic fits of several sensorgrams across the same concentration series used in equilibrium binding response analysis.
(1 picture or pasted object on this page, not shown here)

[3] = target: transferrin (Homo sapiens, UniProt P02787); experiment: Equilibrium SPR affinity of TRF26 peptides for immobilized transferrin; conditions: peptide concentration series
transferrin, sequence (P02787 20-698, species assumed): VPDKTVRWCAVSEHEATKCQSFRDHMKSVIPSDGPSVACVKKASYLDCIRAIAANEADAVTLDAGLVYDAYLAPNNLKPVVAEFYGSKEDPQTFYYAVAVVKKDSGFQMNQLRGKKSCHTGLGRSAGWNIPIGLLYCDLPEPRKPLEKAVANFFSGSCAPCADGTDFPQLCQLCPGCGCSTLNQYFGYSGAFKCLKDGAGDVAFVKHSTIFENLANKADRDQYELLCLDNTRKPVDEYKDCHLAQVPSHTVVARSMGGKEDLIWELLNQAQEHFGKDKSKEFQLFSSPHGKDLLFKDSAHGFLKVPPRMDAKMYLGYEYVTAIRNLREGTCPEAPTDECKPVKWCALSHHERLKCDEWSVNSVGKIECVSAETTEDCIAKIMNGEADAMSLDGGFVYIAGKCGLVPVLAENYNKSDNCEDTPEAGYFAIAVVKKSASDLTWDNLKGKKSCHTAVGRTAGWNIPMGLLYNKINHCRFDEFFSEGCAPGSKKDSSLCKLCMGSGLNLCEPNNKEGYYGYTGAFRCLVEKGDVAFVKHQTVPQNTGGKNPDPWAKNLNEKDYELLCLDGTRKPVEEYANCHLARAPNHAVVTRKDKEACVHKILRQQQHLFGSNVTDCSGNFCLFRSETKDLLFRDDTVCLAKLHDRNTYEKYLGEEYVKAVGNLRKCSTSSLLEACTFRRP

[4] = target: T1, TNF-α; experiment: Solution-phase fluorescence anisotropy of labeled TNF1-opt with TNF-α; conditions: peptide labeled at C-terminal cysteine fixed at 100 nM, TNF-α varied 80 nM to 10 µM, triplicate
Protocol: Figure 4 Equilibrium binding isotherms for TNF1-opt. Outer plot: SPR normalized replicate responses performed with TNF-α captured on the SPR chip surface and variable TNF-opt concentrations flowed over the surface. Inset plot: Solution-phase fluorescence anisotropy measurements performed in triplicate with TNF1-opt labeled at the C-terminal cysteine, TNF-opt concentration was fixed at 100 nM while TNF-α concentration was varied. TNF1-opt sensorgrams are available in Figure S5 in File S1, SPR binding isotherms for all enhanced variants tested are available in Figure S6 in File S1.
TNF1 and TNF4 Lead Generation from a […] Random Peptide Screen. Peptide Library and SPR Chip Preparation. Random 20-mer peptides were prepared in 384-well plates and diluted with Biacore HBS-EP buffer (GE Healthcare, Piscataway, NJ) containing 1 mg/ml carboxymethyl-dextran (Sigma-Aldrich, St. Louis, MO) to reduce non-specific binding to the CM-5 SPR chip surface. […]
TNF1-opt Fluorescence Polarization Affinity Characterization. Fluorescence anisotropy measurements were performed on a custom fluorimeter with an orthogonal optical configuration. […]
200 nM TNF-α and 200 nM E.coli lysate (calculated as a total protein concentration in the lysate) labeled with Alexa-555 and Alexa-647 (Invitrogen, Carlsbad, CA) respectively in PBST buffer containing 1% BSA was incubated with the microarray for 1 hour in a humidity chamber. […]

[5] = equilibrium SPR, TNF-α captured on chip, peptide concentration series, mean ± standard error of several replicates, SEM
[6] = equilibrium SPR binding responses, TNF-α

T1 sequence (P01375 77-233 limits assumed): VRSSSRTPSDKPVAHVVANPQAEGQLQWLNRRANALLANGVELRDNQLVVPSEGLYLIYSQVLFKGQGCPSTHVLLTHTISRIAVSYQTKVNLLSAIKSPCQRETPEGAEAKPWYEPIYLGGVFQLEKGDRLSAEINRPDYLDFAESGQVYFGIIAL

Sequence: FERYPLMMPWKFLQSRQGSC [D4Y+S11K]
- Kd [1, 5]: 9.3 ± 0.7 µM

Sequence: FERDYLMMPWSFLQSRQGSC [Peptide P5Y]
- Kd [1, 5]: 58 ± 3.4 µM

Sequence: YGPSYAFKITRFHQQSSGSC [Peptide D5Y]
- Kd [1, 6]: 0.28 ± 0.04 µM

Sequence: WGPSDAFKITRFHQQSSGSC [Peptide Y1W]
- Kd [1, 6]: 0.38 ± 0.08 µM

Sequence: FERSYLMMPWKFLQSRQGSC [D4S+P5Y+S11K]
- Kd [1, 5]: 7 ± 0.5 µM

Sequence: FERYPLKMPWSFLQSRQGSC [D4Y+M7K]
- Kd [1, 5]: 17 ± 1.9 µM

Sequence: WGPSYAFKIYRFHQQSSGSC [TNF4-opt]
- Kd [1, 6]: 0.09 ± 0.02 µM
- Kd ([2]; read-out: Kd resulting from rate constants): 0.13 ± 0.03 µM
- koff [2]: 0.0075 ± 8e-07 s⁻¹
- kon [2]: 58000 ± 1.2e+08 M⁻¹ s⁻¹

Sequence: AHKVVPQRQIRHAYNRYGSC [TRF26]
- Kd [3]: 85 ± 14 µM

Sequence: AHKVVYQRQIRFAYNRYGSC [P6Y+H12F]
- Kd [3]: 0.5 ± 0.1 µM

Sequence: FERDPLKMPWSFLQSRQGSC [Peptide M7K]
- Kd [1, 5]: 57 ± 20 µM

Sequence: YGPSDAFKIYRFHQQSSGSC [Peptide T10Y]
- Kd [1, 6]: 0.31 ± 0.01 µM

Sequence: AHKVVYQRQIRHAYNRYGSC [Peptide P6Y]
- Kd [3]: 8.6 ± 1.6 µM

Sequence: FERDPLMMPWSFLQSRQGSC [TNF1]
- Kd [1, 5]: 160 ± 19 µM
- koff [2]: 1.6 ± 0.5 s⁻¹
- kon [2]: 5000 ± 1.7e+06 M⁻¹ s⁻¹

Sequence: FERSYLKMPWSFLQSRQGSC [D4S+P5Y+M7K]
- Kd [1, 5]: 14 ± 1 µM

Sequence: FERYPLMMPWSFLQSRQGSC [Peptide D4Y]
- Kd [1, 5]: 44 ± 4.8 µM

Sequence: YGPSDAFKITRFHQQSSGSC [TNF4]
- Kd [1, 5]: 23 ± 3.5 µM

Sequence: FERDYLKMPWSFLQSRQGSC [P5Y+M7K]
- Kd [1, 5]: 27 ± 1.8 µM

Sequence: AHKVVPQRQIRFAYNRYGSC [Peptide H12F]
- Kd [3]: 9.7 ± 1.6 µM

Sequence: FERDPLMMPWKFLQSRQGSC [Peptide S11K]
- Kd [1, 5]: 40 ± 7.2 µM

Sequence: WGPSYAFKITRFHQQSSGSC [Y1W+D5Y]
- Kd [1, 6]: 0.2 ± 0.03 µM

Sequence: FERDYLMMPWKFLQSRQGSC [P5Y+S11K]
- Kd [1, 5]: 24 ± 1.4 µM

Sequence: FERSYLKMPWKFLQSRQGSC [TNF1-opt]
- Kd [1, 5]: 1.6 ± 0.3 µM
- Kd ([2]; read-out: Kd calculated from rate constants): 0.7 ± 0.02 µM
- koff [2]: 0.2 ± 0.02 s⁻¹
- kon [2]: 260000 ± 2e+09 M⁻¹ s⁻¹
- Kd [4]: 1.1 ± 0.2 µM

Source: article PMC2978705, “Thermodynamic Additivity of Sequence Variations: An Algorithm for Creating High Affinity Peptides Without Large Libraries or Structural Information” (PLoS ONE, 2010)
